These results are taken from PMC9062259, “Mammalian Ddi2 is a shuttling factor containing a retroviral protease domain that influences binding of ubiquitylated proteins and proteasomal degradation” (The Journal of Biological Chemistry, 2022).

One data set has as its target T1, Ddi2 (Homo sapiens, UniProt Q5TDH0).
T1 construct: His6-Ddi2
T1 sequence (Q5TDH0 1-399): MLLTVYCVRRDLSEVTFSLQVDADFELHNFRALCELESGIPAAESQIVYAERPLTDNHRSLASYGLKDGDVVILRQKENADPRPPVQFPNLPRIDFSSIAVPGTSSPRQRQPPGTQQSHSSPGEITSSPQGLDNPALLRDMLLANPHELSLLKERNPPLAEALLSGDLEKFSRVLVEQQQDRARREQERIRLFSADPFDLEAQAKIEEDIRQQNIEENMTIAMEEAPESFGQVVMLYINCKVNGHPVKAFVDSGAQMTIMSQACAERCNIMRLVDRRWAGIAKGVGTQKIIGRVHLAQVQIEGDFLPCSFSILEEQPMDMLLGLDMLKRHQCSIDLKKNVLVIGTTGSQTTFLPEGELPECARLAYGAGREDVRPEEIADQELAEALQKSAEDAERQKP
The data set can be described thus: Inhibition of cleavage of fluorescently labeled ubiquitylated NeD-sfGFP by purified His6-Ddi2 (SDS-PAGE, fluorescence imaging). It is filed as biochemical.

Data set [1] deals with the molecule itself. In words: SEC; His-Ddi2 after Ni-NTA on a Superdex 16/60 column in 25 mM Hepes-KOH pH 8, 40 mM potassium acetate, 10% glycerol, 1 mM DTT.

The molecule `Cc1c(O)cccc1C(=O)N[C@@H](CSc1ccccc1)[C@H](O)CN1C[C@H]2CCCC[C@H]2C[C@H]1C(=O)NC(C)(C)C` [nelfinavir] displayed an EC50 on Ddi2 of approximately 40 µM.

B1: His6-Ddi2 (natural protein, human, UniProt Q5TDH0 1-399, looked up)
chain: MLLTVYCVRRDLSEVTFSLQVDADFELHNFRALCELESGIPAAESQIVYAERPLTDNHRSLASYGLKDGDVVILRQKENADPRPPVQFPNLPRIDFSSIAVPGTSSPRQRQPPGTQQSHSSPGEITSSPQGLDNPALLRDMLLANPHELSLLKERNPPLAEALLSGDLEKFSRVLVEQQQDRARREQERIRLFSADPFDLEAQAKIEEDIRQQNIEENMTIAMEEAPESFGQVVMLYINCKVNGHPVKAFVDSGAQMTIMSQACAERCNIMRLVDRRWAGIAKGVGTQKIIGRVHLAQVQIEGDFLPCSFSILEEQPMDMLLGLDMLKRHQCSIDLKKNVLVIGTTGSQTTFLPEGELPECARLAYGAGREDVRPEEIADQELAEALQKSAEDAERQKP
notes: Ddi2, human, from a pET16b plasmid (gift from Klara Saskova); Collected from gel filtration at a molecular weight consistent with dimerization; also called His-Ddi2; purified Ddi2; source: E. coli BL21 RIL (DE3) Codon Plus, purified (Ni-NTA, Superdex gel filtration)
On to B1, for which the binding result in data set [1] is listed as “binds”.
